From patent publication US6369059B1, “Tetracyclic derivatives, process of preparation and use” (ICOS Corporation, priority 1994, dated 2002)

SMILES | melting point
CN1CC(=O)N2[C@@H](c3ccc(OC(F)(F)F)cc3)c3[nH]c4ccccc4c3C[C@@H]2C1=O (relative stereo) [Example 67, Cis-2,3,6,7,12,12a-Hexahydro-2-methyl-6-(4-trifluoromethoxyphenyl)-pyrazino[2′,1′:6,1]pyrido[3,4-b]indole-1,4-dione] | 174 to 180 °C
CN1CC(=O)N2[C@@H](c3ccc(O)cc3)c3[nH]c4ccccc4c3C[C@@H]2C1=O (relative stereo) [Example 68, Cis-2,3,6,7,12,12a-Hexahydro-2-methyl-6-(4-hydroxyphenyl)-pyrazino[2′,1′:6,1]pyrido[3,4-b]indole-1,4-dione] | 179 to 180 °C
COc1cc([C@H]2c3[nH]c4ccccc4c3C[C@@H]3C(=O)N(C)CC(=O)N23)ccc1O (relative stereo) [Example 70, Cis-2,3,6,7,12,12a-Hexahydro-6-(4-hydroxy-3-methoxyphenyl)-2-methyl-pyrazino[2′,1′:6,1]pyrido[3,4-b]indole-1,4-dione] | 264 to 265 °C
CCCCN1CC(=O)N2[C@@H](c3ccc(C#N)cc3)c3[nH]c4ccccc4c3C[C@@H]2C1=O (relative stereo) [Example 71, Cis-2,3,6,7,12,12a-Hexahydro-2-butyl-6-(4cyanophenyl)-pyrazino[2′,1′:6,1]pyrido[3,4-b]indole-1,4-dione] | 246 °C
CCc1ccc([C@H]2c3[nH]c4ccccc4c3C[C@@H]3C(=O)N(C(C)C)CC(=O)N23)cc1 (relative stereo) [Example 72, Cis-2,3,6,7,12,12a-Hexahydro-6-(4-ethylphenyl)-2-isopropyl-pyrazino[2′,1′:6,1]pyrido[3,4-b]indole-1,4-dione] | 130 °C
CCc1ccc([C@H]2c3[nH]c4ccccc4c3C[C@@H]3C(=O)N(CC4CC4)CC(=O)N23)cc1 (relative stereo) [Example 73, Cis-2,3,6,7,12,12a-Hexahydro-6-(4-ethylphenyl)-2-cyclopropylmethyl-pyrazino[2′,1′:6,1]pyrido[3,4-b]indole-1,4-dione] | 160 °C
CCCCN1CC(=O)N2[C@@H](c3ccc([N+](=O)[O-])cc3)c3[nH]c4ccccc4c3C[C@@H]2C1=O (relative stereo) [Example 75, Cis-2,3,6,7,12,12a-Hexahydro-2-butyl-6-(4-nitrophenyl)-pyrazino[2′,1′:6,1]pyrido[3,4-b]indole-1,4-dione] | 182 °C
CN1CC(=O)N2[C@@H](c3cccnc3)c3[nH]c4ccccc4c3C[C@@H]2C1=O (relative stereo) [Example 77, Cis-2,3,6,7,12,12a-Hexahydro-2-methyl-6-(3-pyridyl)-pyrazino[2′,1′:6,1]pyrido[3,4-b]indole-1,4-dione] | 312 °C

More lines, now with the values ahead:

melting point | SMILES
275 °C | Cc1ccc2[nH]c3c(c2c1)C[C@@H]1C(=O)N(C)CC(=O)N1[C@H]3c1ccc2c(c1)OCO2 (relative stereo) [Example 96, Cis-2,3,6,7,12,12a-Hexahydro-2,10-dimethyl-6-(3,4-methylenedioxyphenyl)-pyrazino[2′,1′:6,1]pyrido[3,4-b]indole-1,4-dione]
192 °C | CCCCN1CC(=O)N2[C@@H](c3ccc(N)cc3)c3[nH]c4ccccc4c3C[C@@H]2C1=O (relative stereo) [Example 98, Cis-2,3,6,7,12,12a-Hexahydro-6-(4-aminophenyl)-2-butyl-pyrazino[2′,1′:6,1]pyrido[3,4-b]indole-1,4-dione]
246 °C | CCCCN1CC(=O)N2[C@@H](c3ccc(NC(C)=O)cc3)c3[nH]c4ccccc4c3C[C@@H]2C1=O (relative stereo) [Example 99, Cis-2,3,6,7,12,12a-Hexahydro-6-(4-acetamidophenyl)-2-butyl-pyrazino[2′,1′:6,1]pyrido[3,4-b]indole-1,4-dione]
254 °C | CCc1ccc([C@H]2c3[nH]c4ccccc4c3C[C@@H]3C(=O)N(C)CC(=O)N23)cc1 (relative stereo) [Example 112, Cis-2,3,6,7,12,12a-Hexahydro-6-(4-ethylphenyl)-2-methyl-pyrazino[2′,1′:6,1]pyrido[3,4-b]indole-1,4-dione]
